Experimental data published in US4670460A, “Inhibiting lipoxygenase with pyrazolone derivatives” (Bayer Aktiengesellschaft, priority 1983, dated 1987).

Tests used:
lipoxygenase [1] = molecular target: T1, lipoxygenase (Homo sapiens, UniProt P09917); assay: Inhibition of LTB4 biosynthesis (lipoxygenase-inhibiting action) in human PMN leucocytes stimulated with ionophor A 23187; format: cell-based; settings: 0.25 h; for inhibition at 10 µg/mL: concentration 10^-5 g/ml; for inhibition at 1 µg/mL: concentration 10^-6 g/ml
T1 construct: endogenous in cells; host or cells: human PMN leucocytes isolated from heparinized blood
T1 sequence (P09917 1-674): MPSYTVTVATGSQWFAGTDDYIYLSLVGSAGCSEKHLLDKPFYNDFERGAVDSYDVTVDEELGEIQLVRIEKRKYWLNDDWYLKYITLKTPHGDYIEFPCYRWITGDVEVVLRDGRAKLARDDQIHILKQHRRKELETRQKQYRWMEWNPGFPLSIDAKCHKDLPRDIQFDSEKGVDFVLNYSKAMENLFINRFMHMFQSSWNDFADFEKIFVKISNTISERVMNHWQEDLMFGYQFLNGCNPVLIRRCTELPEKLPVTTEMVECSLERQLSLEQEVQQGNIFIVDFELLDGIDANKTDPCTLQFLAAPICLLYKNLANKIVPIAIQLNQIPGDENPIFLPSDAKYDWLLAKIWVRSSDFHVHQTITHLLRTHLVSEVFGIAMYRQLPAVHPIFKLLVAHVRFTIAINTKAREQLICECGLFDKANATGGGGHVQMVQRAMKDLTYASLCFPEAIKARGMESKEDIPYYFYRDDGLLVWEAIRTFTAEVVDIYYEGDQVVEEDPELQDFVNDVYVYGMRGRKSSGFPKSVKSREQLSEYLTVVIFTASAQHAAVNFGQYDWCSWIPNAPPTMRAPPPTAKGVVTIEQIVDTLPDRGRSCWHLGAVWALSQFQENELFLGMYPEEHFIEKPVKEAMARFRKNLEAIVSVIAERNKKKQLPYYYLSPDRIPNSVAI
Description: The human PMN leucocytes (>95%) used in the present example were obtained from heparinized complete blood by dextran sedimentation and subsequent density gradient separation (Ficoll-Paque) (compare A. Boyum, Scand. J. Immunol., 5, Suppl. 5, 9, 1976).
2×10^7 cells/ml were suspended in Dulbecco phosphate buffer containing Ca^2+ and were incubated with radioactively labelled arachidonic acid and the calcium ionophor A 23187 in the presence or absence of lipoxygenase inhibitor. After 15 minutes, the labelled lipoxygenase products were extracted from the acidified incubation medium and were separated by thin layer chromatography using a mobile phase mixture suitable for the leukotrienes (5-HETE-LTB4) (compare B. Jakschik et al., Biochem. Biophys. Res. Commun., 102, 624, 1981).
The distribution of the activity amongst the various metabolites was measured by a thin layer scanner. It is a measure of the lipoxygenase-inhibiting action of a test substance at a certain concentration.
The lipoxygenase metabolites were also additionally determined independently by means of high pressure liquid chromatography. This method enables the endogenous arachidonic acid metabolism to be studied with the aid of UV detection of the leukotrienes. In this method, the cells were treated as described above, with the exception that no radioactively labelled arachidonic acid was added exogenously. The high pressure liquid chromatography was carried out on Lichrosorb RP-18 (5 μm) columns. The mobile phase was methanol/water/glacial acetic acid 69/31/0.01. The flow rate was 1 ml/minute. Leukotriene B4 was determined at 280 nm and the HETE derivatives were determined at 232 nm, in each case by means of UV absorption.

[2] = Antithrombotic action (prophylaxis of thromboses); format: in vivo; settings: dose increased 100 times in comparison with nafazatrom
leucocytes = assay: Leucocyte stickiness, hamster cheek pouch venule; format: in vivo, Syrian golden hamsters
Description: The number of leucocytes which pass a certain section of a vessel serves as a simple model for measuring the stickiness of leucocytes (Bray, M. A. et al., Prostaglandins 22, 213 (1981)). The number of leucocytes counted will be greater, the lower the stickiness of the cells.
The pyrazolone derivatives described below were investigated in this model.
Male Syrian golden hamsters (80-100 g) were anaesthetized with Nembutal (i.p.; 60 mg/kg). After insertion of a PE 10 catheter into the a. femoralis, the animal was laid on a Duling dissecting platform (MVR 5, 423 (1973)) and the right cheek pouch was withdrawn by inserting a Q-Tip. It was carefully drawn into the envisaged part of the platform, stretched and fixed.
From the start of the dissection, 5 ml/minute of Superfusat flowedover the prepared cheek pouch. The temperature of the solution was 36° C. While treating the vessels with care, the upper layer tissue was separated longitudinally and folded back to the side. Under about 200-fold magnification, an area of about 1 cm^2 of connective tissue was carefully exposed. The animal was placed on the object stand of a microscope, together with the dissecting platform. A thermocouple was inserted into the left cheek pouch. The body temperature of the animal was thus monitored and kept at 36±0.3° C. with the aid of an IR lamp (250 watt).
The leucocyte stickiness was measured at about 500-fold magnification. A venule (30-40 μm .phi.) was selected in the exposed area. The number of leucocytes per unit time (minutes) which migrate past a certain section of this vessel were counted.
Intra-arterial administration of the pyrazolone derivatives in 1% strength aqueous Tylose suspension led to the following results: […]

[3] = test system: 15-hydroxyprostaglandin dehydrogenase; settings: Wong and McGiff 1982; cited from earlier work
[4] = test system: endogenous prostacyclin (PGI2) from the vascular endothelium; settings: Vermylen 1979, Chamone 1981, McIntyre and Salzman 1981; cited from earlier work
lipoxygenase [5] = settings: Busse et al. 1982; cited from earlier work

inhibition at 10 µg/mL (lipoxygenase [1]) [%]	inhibition at 1 µg/mL (lipoxygenase [1]) [%]	SMILES	other results
100	100	CC(C)CC1=NN(CCOc2ccc3ccccc3c2)C(=O)C1	–
100	62	CC1=NN(CCOc2cccc3ccccc23)C(=O)C1	–
100	93	CCCCCCC1C(=O)N(CCOc2ccc3ccccc3c2)N=C1C (stereo not drawn)	–
100	81	O=C1CC(c2ccccc2)=NN1CCCc1ccccc1	–
100	43	CC1=NN(CCOc2ccc(Cl)c(C)c2)C(=O)C1	–
100	–	CC1=NN(C(C)c2ccc(Cl)c(Cl)c2)C(=O)C1Cc1ccccc1 (stereo not drawn)	–
80	–	O=C1CC(CO)=NN1CCOc1ccc2ccccc2c1	–
82	36	CC(=O)OCC1=NN(CCOc2ccc3ccccc3c2)C(=O)C1	–
93	40	COCC1=NN(CCOc2ccc3ccccc3c2)C(=O)C1	–
100	75	CC1=NN(CCOc2ccccc2-c2ccccc2)C(=O)C1 [drawing 18]	–
100	100	CCC1C(=O)N(CCOc2ccc3c(Br)cccc3c2)N=C1C (stereo not drawn) [drawing 20]	–
100	83	CC1=NN(CCOc2ccc3ccccc3c2)C(=O)C1C (stereo not drawn) [drawing 22]	–
100	58	CC1=NN(CCc2cccc3ccccc23)C(=O)C1 [drawing 28]	–
100	58	CC1=NN(CCOc2ccc3ccccc3c2)C(=O)C1 [drawing 34, reference compound]	–

Continued, molecule first:

SMILES	inhibition at 10 µg/mL (lipoxygenase [1]) [%]	inhibition at 1 µg/mL (lipoxygenase [1]) [%]	other results
CCC1=NN(CCOc2ccc3c(Br)cccc3c2)C(=O)C1C (stereo not drawn)	100	100	–
CCCCC1C(=O)N(CCOc2ccc3c(Br)cccc3c2)N=C1C (stereo not drawn)	100	68	–
Cc1cc(OC(=O)c2ccc3ccccc3c2)n(C(C)c2ccc(Cl)c(Cl)c2)n1 (stereo not drawn)	46	–	–
O=C1CC(C2CCCCC2)=NN1CCCc1ccccc1	100	71	–
CC1=NN(CCOc2ccc3ccccc3c2)C(=O)C1C1C(=O)N(CCOc2ccc3ccccc3c2)N=C1C (stereo not drawn)	50	–	–
Cc1cc(OC(=O)c2ccc(Cl)cc2)n(C(C)c2ccc(Cl)c(Cl)c2)n1 (stereo not drawn)	80	–	–
CC1=NN(CCOc2ccc3ccccc3c2)C(=O)C1C (stereo not drawn) [3,4-dimethyl derivative]	–	–	Effect in the prophylaxis of thromboses [2]: no effect can be detected
O=C1CC(Cc2ccccc2)=NN1CCOc1ccc2ccccc2c1 [Compound 3-benzyl]	–	–	Effect in the prophylaxis of thromboses [2]: no effect can be detected
CC(C)C1=NN(CCOc2ccc3ccccc3c2)C(=O)C1 [Compound 3-isopropyl]	–	–	Effect in the prophylaxis of thromboses [2]: no effect can be detected
CCCC1=NN(CCOc2ccc3ccccc3c2)C(=O)C1 [Compound 3-n-propyl]	–	–	Effect in the prophylaxis of thromboses [2]: no effect can be detected
CC1=NN(CCOc2ccccc2-c2ccccc2)C(=O)C1 [Compound 4]	–	–	Duration of action (leucocytes; dose 0.1 mg/kg intra-arterial): 40 min; Increase in Leucocyte number (%) (leucocytes; dose 0.1 mg/kg intra-arterial): 35%
CCC1C(=O)N(CCOc2ccc3c(Br)cccc3c2)N=C1C (stereo not drawn) [Compound 5]	–	–	Duration of action (leucocytes; dose 1 mg/kg intra-arterial): 30 to 50 min; Increase in Leucocyte number (%) (leucocytes; dose 1 mg/kg intra-arterial): 200%
CC1=NN(CCc2cccc3ccccc23)C(=O)C1 [Compound 6]	–	–	Duration of action (leucocytes; dose 1 mg/kg intra-arterial): 20 to 30 min; Increase in Leucocyte number (%) (leucocytes; dose 1 mg/kg intra-arterial): 30%
CC1=NN(CCOc2ccc3ccccc3c2)C(=O)C1 [nafazatrom, 3-methyl-1-[2-(2-naphthyloxy)-ethyl]-2-pyrazolin-5-one]	–	–	Blockade of 15-hydroxyprostaglandin dehydrogenase, the PGI2-degrading enzyme [3]: blocks; Stimulation of endogenous prostacyclin (PGI2) from the vascular endothelium [4]: can act as a stimulator; Inhibition of lipoxygenase activity (lipoxygenase [5]): inhibits lipoxygenase activity
